Measurements taken from the supplement of paper PMC10307832.

How the values were obtained:
Assay in all cases: relative viability (nuclei count vs DMSO), 5 days (fraction); higher = more cells survive
Palbociclib + Crizotinib = compound: CC(=O)c1c(C)c2cnc(Nc3ccc(N4CCNCC4)cn3)nc2n(C2CCCC2)c1=O [Palbociclib] + C[C@@H](Oc1cc(-c2cnn(C3CCNCC3)c2)cnc1N)c1c(Cl)ccc(F)c1Cl [Crizotinib] (partner 1 µM)
Procedure, shortened: (§1)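 After 5 days of treatment, lung cancer cells in 1536-well plates were fixed and stained in a single step (final 0.05% Triton X-100, 1% formaldehyde, 1 ug/ml Hoechst) and their nuclei counted on 4× images. Treatment had been applied by pin tool the day after seeding as one drug alone or as a fixed anchor-drug dose with five library-drug doses (not always all listed) in √10 steps. Relative viability is the nuclei count of treated wells divided by that of vehicle wells, and values are medians of duplicate plates.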

Palbociclib + Pictilisib = compound: CC(=O)c1c(C)c2cnc(Nc3ccc(N4CCNCC4)cn3)nc2n(C2CCCC2)c1=O [Palbociclib] + CS(=O)(=O)N1CCN(Cc2cc3nc(-c4cccc5[nH]ncc45)nc(N4CCOCC4)c3s2)CC1 [Pictilisib] (partner 1 µM)
Procedure, shortened: as §1

Palbociclib + Bortezomib = compound: CC(=O)c1c(C)c2cnc(Nc3ccc(N4CCNCC4)cn3)nc2n(C2CCCC2)c1=O [Palbociclib] + CC(C)C[C@H](NC(=O)[C@H](Cc1ccccc1)NC(=O)c1cnccn1)B(O)O [Bortezomib] (partner 0.002 µM)
Procedure, shortened: as §1

Palbociclib + Alpelisib = compound: CC(=O)c1c(C)c2cnc(Nc3ccc(N4CCNCC4)cn3)nc2n(C2CCCC2)c1=O [Palbociclib] + Cc1nc(NC(=O)N2CCC[C@H]2C(N)=O)sc1-c1ccnc(C(C)(C)C(F)(F)F)c1 [Alpelisib] (partner 2 µM)
Procedure, shortened: as §1

Cell Line	relative viability (Palbociclib + Crizotinib; first compound 0.01 µM)	relative viability (Palbociclib + Crizotinib; first compound 0.03162 µM)	relative viability (Palbociclib + Crizotinib; first compound 0.1 µM)	relative viability (Palbociclib + Crizotinib; first compound 0.3162 µM)	relative viability (Palbociclib + Crizotinib; first compound 1 µM)	relative viability (Palbociclib + Pictilisib; first compound 0.01 µM)	relative viability (Palbociclib + Pictilisib; first compound 0.03162 µM)	relative viability (Palbociclib + Pictilisib; first compound 0.1 µM)	relative viability (Palbociclib + Pictilisib; first compound 0.3162 µM)	relative viability (Palbociclib + Pictilisib; first compound 1 µM)	relative viability (Palbociclib + Bortezomib; first compound 0.01 µM)	relative viability (Palbociclib + Bortezomib; first compound 0.03162 µM)	relative viability (Palbociclib + Bortezomib; first compound 0.1 µM)	relative viability (Palbociclib + Bortezomib; first compound 0.3162 µM)	relative viability (Palbociclib + Bortezomib; first compound 1 µM)	relative viability (Palbociclib + Alpelisib; first compound 0.01 µM)	relative viability (Palbociclib + Alpelisib; first compound 0.03162 µM)	relative viability (Palbociclib + Alpelisib; first compound 0.1 µM)	relative viability (Palbociclib + Alpelisib; first compound 0.3162 µM)	relative viability (Palbociclib + Alpelisib; first compound 1 µM)
201T	1.01	0.992	0.922	0.93	0.806	0.68	0.61	0.622	0.525	0.464	1.16	0.954	1.04	0.946	0.709	0.995	1.04	0.884	0.974	0.728
A549	0.776	0.65	0.472	0.362	0.29	0.472	0.318	0.293	0.283	0.203						0.741	0.651	0.486	0.356	0.254
A-427	0.963	0.83	0.668	0.728	0.614	0.703	0.648	0.592	0.447	0.347	0.933	0.877	0.827	0.832	0.546	1.08	0.951	0.929	0.893	0.816
ABC-1	0.935	1.16	0.93	0.832	0.591	0.756	0.758	0.532	0.516	0.423	0.323	0.32	0.232	0.292	0.394	1.28	0.91	0.785	0.751	0.412
BEN	0.831	0.701	0.719	0.722	0.475	0.612	0.425	0.402	0.411	0.3	0.94	0.728	0.849	0.674	0.353	1.04	0.847	0.634	0.834	0.499
CAL-12T	0.598	0.464	0.466	0.511	0.374	0.471			0.263	0.281	1.04			0.674	0.405	1.11	1.05	0.84	0.652	0.603
COR-L23	0.707	0.551	0.427	0.32	0.287	0.772	0.655	0.503	0.463	0.328	0.952	0.795	0.831	0.721	0.344	0.671	0.535	0.516	0.37	0.311
COR-L 105	0.726	0.555	0.451	0.447	0.276	0.384	0.337	0.261	0.319	0.367	0.759	0.435	0.486	0.504	0.363	0.916	0.888	0.792	0.7	0.444
Calu-6	0.867	0.68	0.662	0.551	0.451	0.908	0.779	0.698	0.508	0.371	0.926	0.95	0.727	0.89	0.412	0.817	0.864	0.751	0.695	0.465
ChaGo-K-1	0.961	0.639	1.07	1.12	1.13	0.836	0.51	0.753	0.955	1.12	1.11	0.828	1.02	1.14	1.11					
EKVX	1.13	0.898	0.818	0.781	0.499	0.478	0.363	0.223	0.281	0.249	1.12	0.916	1.04	0.989	0.461	1.04	0.716	0.661	0.604	0.401
EMC-BAC-2	0.738	0.716	0.699	0.646	0.496	0.553	0.445	0.442	0.414	0.345	1.09	0.812	0.905	0.785	0.665	0.738	0.646	0.602	0.665	0.508
EPLC-272H	0.967		0.779	0.893	0.799	0.377		0.272	0.266	0.262	0.836		0.792	0.883	0.512	1.13		0.808	0.69	0.658
H3255	1.03	0.688	0.672	0.689	0.451	0.517	0.376	0.394	0.434	0.261	0.912	0.789	0.624	0.641	0.317	0.714	0.599	0.469	0.488	0.36
HARA	1.04	0.945	0.836	0.766	0.499	0.406	0.347	0.225	0.202	0.169	1.07	1.02	1	0.874	0.389	0.82	0.718	0.557	0.405	0.31
HCC-15	0.811		0.725	0.687	0.63	0.71		0.617	0.591	0.603	1.1		0.929	0.833	0.737	0.878		0.793	0.719	0.704
HCC-44	0.738	0.803	0.789	0.747	0.85	0.658	0.538	0.544	0.642	0.521	0.824	0.804	0.844	0.836	0.911	0.728	0.789	0.819	0.798	0.774
HCC-78	0.375	0.328	0.266	0.27	0.269	0.206	0.202	0.19	0.251	0.154	0.385	0.451	0.366	0.454	0.406	0.305	0.242	0.217	0.263	0.216
HCC-366	0.539		0.501	0.526	0.413	0.137		0.168	0.14	0.0548	0.953		0.965	0.975	0.616	0.517		0.345	0.209	0.204

Cell Line	relative viability (Palbociclib + Crizotinib; first compound 0.01 µM)	relative viability (Palbociclib + Crizotinib; first compound 0.03162 µM)	relative viability (Palbociclib + Crizotinib; first compound 0.1 µM)	relative viability (Palbociclib + Crizotinib; first compound 0.3162 µM)	relative viability (Palbociclib + Crizotinib; first compound 1 µM)	relative viability (Palbociclib + Pictilisib; first compound 0.01 µM)	relative viability (Palbociclib + Pictilisib; first compound 0.03162 µM)	relative viability (Palbociclib + Pictilisib; first compound 0.1 µM)	relative viability (Palbociclib + Pictilisib; first compound 0.3162 µM)	relative viability (Palbociclib + Pictilisib; first compound 1 µM)	relative viability (Palbociclib + Bortezomib; first compound 0.01 µM)	relative viability (Palbociclib + Bortezomib; first compound 0.03162 µM)	relative viability (Palbociclib + Bortezomib; first compound 0.1 µM)	relative viability (Palbociclib + Bortezomib; first compound 0.3162 µM)	relative viability (Palbociclib + Bortezomib; first compound 1 µM)	relative viability (Palbociclib + Alpelisib; first compound 0.01 µM)	relative viability (Palbociclib + Alpelisib; first compound 0.03162 µM)	relative viability (Palbociclib + Alpelisib; first compound 0.1 µM)	relative viability (Palbociclib + Alpelisib; first compound 0.3162 µM)	relative viability (Palbociclib + Alpelisib; first compound 1 µM)
HCC-827	0.904	0.889	0.844	0.787	0.781	0.859	1.02	0.986	0.951	0.746	1.09	0.804	0.954	0.948	0.857	1.04	0.927	0.913	0.819	0.652
HOP-62	0.817		0.842	0.812	0.666	0.775		0.516	0.551	0.358	0.418		0.741	0.612	0.57	0.851		0.797	0.831	0.648
IA-LM	0.748	0.505	0.373	0.138	0.0793	0.299	0.215	0.167	0.113	0.0912	0.606	0.49	0.469	0.348	0.134	0.826	0.675	0.456	0.373	0.144
LC-2-ad	0.417		0.421	0.44	0.328	0.45		0.346	0.305	0.223	1.03		0.779	0.704	0.469	0.876		0.701	0.641	0.463
LCLC-97TM1	0.345		0.257	0.313	0.259	0.199		0.122	0.157	0.101	0.729	0.514	0.396	0.319	0.138	0.291		0.189	0.209	0.189
LCLC-103H	1.04	1.04	0.846	0.995	0.804	0.564	0.536	0.543	0.591	0.436	1.2	0.957	0.967	0.87	0.649	0.756	1.03	0.821	0.796	0.688
LK-2	0.247		0.23	0.227	0.246	0.574		0.365	0.529	0.501						1.12		0.75	1.15	1.3
LOU-NH91	0.745	0.676	0.584	0.592	0.505	0.547	0.479	0.484	0.465	0.446	0.458	0.439	0.441	0.446	0.489	0.753	0.609	0.545	0.576	0.55
LU99A	0.636	0.559	0.496	0.428	0.389	0.328	0.287	0.239	0.236	0.225	0.976	0.935	1	1.09	0.67	0.539	0.432	0.425	0.39	0.33
LXF-289	0.747	0.811	0.782	0.684	0.612	0.752	0.807	0.642	0.69	0.474	0.997	0.933	0.971	0.852	0.677	0.99	0.988	1.01	0.923	0.767
NCI-H23	0.613		0.436	0.458	0.428	0.575		0.362	0.36	0.205	1.12		0.87	0.703	0.553	0.705		0.585	0.588	0.432
NCI-H358	0.453	0.479	0.335	0.332	0.187	0.277	0.189	0.185	0.213	0.155						0.777	0.709	0.395	0.312	0.257
NCI-H1395						0.616	0.542	0.507	0.494	0.425						1.05	0.835	0.79	0.875	0.686
NCI-H1650	0.957	0.724	0.776	0.684	0.548	0.548	0.223	0.383	0.414	0.312	0.229	0.227	0.176	0.187	0.215					
NCI-H1793						0.241	0.351	0.285	0.224	0.219						0.749	0.73	0.687	0.487	0.547
NCI-H1944	1.01	0.969	0.904	0.98	0.851	0.317	0.332	0.334	0.265	0.228						0.859	0.723	0.648	0.758	0.525
NCI-H2170	1.23	1.07	1.11	1.13	0.785	0.346	0.252	0.253	0.239	0.206						0.797	0.767	0.776	0.715	0.601
SK-MES-1	0.943	0.952	0.724	0.714	0.45	0.359	0.305	0.238	0.266	0.196						0.841	0.815	0.507	0.56	0.356
